Experiment [1] deals with T1, Delta-type opioid receptor (Homo sapiens, UniProt P41143). Description: Displacement of [3H]DPDPE from human DOR expressed in CHO cells. The experiment is classed as cell-based. On the technique in general: Displacement assays read how much labelled ligand stays bound in the presence of the test substance.
Experiment [2] deals with T1, Delta-type opioid receptor. Description: Inverse agonist activity at human DOR expressed in CHO cell membranes by [35S]GTPgammaS binding assay. The experiment is classed as functional.
The target in experiment [3] is T1, Delta-type opioid receptor. Description: Inverse agonist activity at human DOR expressed in CHO cell membranes by [35S]GTPgammaS binding assay relative to control. The class given is functional.
The species entered for experiment [4] is Homo sapiens. Description: Selectivity index, ratio of Ki for human MOR to Ki for human DOR.
The species entered for experiment [5] is Homo sapiens. Description: Selectivity index, ratio of Ki for human KOR to Ki for human DOR.
Experiment [6] deals with Kappa-type opioid receptor (Homo sapiens, UniProt P41145). Put plainly: Displacement of [3H]U-69,593 from human KOR expressed in CHO cells. The experiment is classed as cell-based.
A further experiment concerns the target Mu-type opioid receptor (Homo sapiens, UniProt P35372). Description: Displacement of [3H]DAMGO from human MOR expressed in CHO cells. The experiment is classed as cell-based.

Square brackets hold non-standard residues; d marks the D form. Peptide text beside a SMILES is read from it. * marks the point of attachment. Tyr(Nα,Nα-allyl2) = C=CCN(CC=C)[C@@H](Cc1ccc(O)cc1)C(=O)*; Aib = CC(C)(N)C(=O)O Bounds are passed on as bounds.

T1 sequence (P41143 whole entry): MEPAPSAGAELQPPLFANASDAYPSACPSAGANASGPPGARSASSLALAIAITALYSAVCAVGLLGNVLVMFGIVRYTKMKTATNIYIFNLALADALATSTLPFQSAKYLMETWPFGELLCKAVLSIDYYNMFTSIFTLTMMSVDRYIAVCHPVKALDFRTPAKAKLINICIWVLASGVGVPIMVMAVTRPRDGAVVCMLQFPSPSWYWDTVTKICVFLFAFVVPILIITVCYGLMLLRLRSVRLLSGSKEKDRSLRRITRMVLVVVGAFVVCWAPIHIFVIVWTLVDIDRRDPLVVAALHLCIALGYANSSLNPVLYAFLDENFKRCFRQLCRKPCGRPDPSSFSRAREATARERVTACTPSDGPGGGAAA
Mu-type opioid receptor, sequence (P35372 whole entry): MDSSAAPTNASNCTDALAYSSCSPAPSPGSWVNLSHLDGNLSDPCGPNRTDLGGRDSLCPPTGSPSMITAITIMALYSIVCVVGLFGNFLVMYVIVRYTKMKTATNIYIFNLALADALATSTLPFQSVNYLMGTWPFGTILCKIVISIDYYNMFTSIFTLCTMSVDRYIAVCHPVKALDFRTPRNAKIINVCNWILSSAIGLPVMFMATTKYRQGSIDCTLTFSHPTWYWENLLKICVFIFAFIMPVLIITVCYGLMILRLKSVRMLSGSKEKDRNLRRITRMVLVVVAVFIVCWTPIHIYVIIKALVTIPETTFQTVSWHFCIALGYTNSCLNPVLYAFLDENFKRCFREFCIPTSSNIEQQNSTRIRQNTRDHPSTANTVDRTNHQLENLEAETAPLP
Kappa-type opioid receptor, sequence (P41145 whole entry): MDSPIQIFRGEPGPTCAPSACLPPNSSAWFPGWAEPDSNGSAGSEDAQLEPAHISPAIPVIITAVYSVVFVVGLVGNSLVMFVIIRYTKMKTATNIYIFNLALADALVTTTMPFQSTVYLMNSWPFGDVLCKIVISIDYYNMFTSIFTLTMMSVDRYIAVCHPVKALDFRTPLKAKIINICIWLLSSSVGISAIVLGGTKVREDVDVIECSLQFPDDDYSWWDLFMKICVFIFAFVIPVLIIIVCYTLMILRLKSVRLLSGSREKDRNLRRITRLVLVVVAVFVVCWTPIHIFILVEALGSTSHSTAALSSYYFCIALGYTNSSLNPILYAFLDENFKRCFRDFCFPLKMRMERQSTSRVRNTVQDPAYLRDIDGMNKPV

For orientation: Ki means a dissociation constant, usually derived from enzyme kinetics or from competition with a known ligand. Lower therefore signals higher affinity. As a reminder, the EC50 is the concentration that produces a half-maximal response. Lower therefore signals a more potent agent. One may read the Emax as the size of the effect at its maximum, as opposed to the concentration needed. Regarding `Oc1ccc2c3c1O[C@H]1c4nc5ccccc5cc4C[C@@]4(O)[C@@H](C2)N(CCF)CC[C@]314`, the inhibitory constant (Ki) in experiment [1] came out at 5.58 nM; in experiment [6], 854 nM; at Mu-type opioid receptor, 422 nM. The same molecule returned a half-maximal effective concentration (EC50) in experiment [2] of 24.7 nM. For the same molecule, the Emax in experiment [3] was found to be 27.1%. Moreover, the Ratio Ki in the experiment filed under Homo sapiens [4] turned out to be 75.7; in the experiment listed under Homo sapiens [5], 153.
Regarding `Oc1ccc2c3c1O[C@H]1c4nc5ccccc5cc4C[C@@]4(O)[C@@H](C2)N(CC(F)(F)F)CC[C@]314`, the inhibition constant (Ki) is 37.8 nM in experiment [1], > 1000 nM in experiment [6] and > 1000 nM on Mu-type opioid receptor.
With `Oc1ccc2c3c1O[C@H]1c4[nH]c5ccccc5c4C[C@@]4(O)[C@@H](C2)N(CC(F)(F)F)CC[C@]314`, the inhibition constant Ki in experiment [1] was 134 nM; in experiment [6] it was > 1000 nM; at Mu-type opioid receptor, > 1000 nM. The molecule also displayed an EC50 in experiment [2] of 45.5 nM. Besides, the Emax in experiment [3] is -44.8%.
As for `CCCN1CC[C@]23c4c5ccc(O)c4O[C@H]2c2[nH]c4ccccc4c2C[C@@]3(O)[C@H]1C5`, the inhibitory constant (Ki) in experiment [1] was found to be 1.11 nM; in experiment [6] it was 74.3 nM; at Mu-type opioid receptor, 133 nM. The Ratio Ki in the experiment filed under Homo sapiens [4] came out at 120; in the experiment filed under Homo sapiens [5], 66.9.
On to `CCN1CC[C@]23c4c5ccc(O)c4O[C@H]2c2nc4ccccc4cc2C[C@@]3(O)[C@H]1C5`, for which the Ki was determined as 8.89 nM in experiment [1], 477 nM in experiment [6] and 670 nM at Mu-type opioid receptor. The same molecule showed an EC50 in experiment [2] of 6.71 nM. In addition, the Emax in experiment [3] came to 41.2%. Besides, the Ratio Ki in the experiment listed under Homo sapiens [4] was 75.4; in the experiment listed under Homo sapiens [5] it was 53.7.
With `C=CCN(CC=C)[C@@H](Cc1ccc(O)cc1)C(=O)NC(C)(C)C(=O)NC(C)(C)C(=O)N[C@@H](Cc1ccccc1)C(=O)N[C@@H](CC(C)C)C(=O)O` ({Tyr(Nα,Nα-allyl2)}-[Aib][Aib]FL-OH), the 50% effective concentration (EC50) in experiment [2] stood at 116 nM. For the same molecule, the Emax in experiment [3] is -100%.
Turning to `CCN1CC[C@]23c4c5ccc(O)c4O[C@H]2c2[nH]c4ccccc4c2C[C@@]3(O)[C@H]1C5`, the Ki in experiment [1] was determined as 2.71 nM; in experiment [6], 468 nM; on Mu-type opioid receptor it was 788 nM. In addition, the Ratio Ki turned out to be 291 in the experiment filed under Homo sapiens [4] and 172 in the experiment filed under Homo sapiens [5].
Turning to `Oc1ccc2c3c1O[C@H]1c4nc5ccccc5cc4C[C@@]4(O)[C@@H](C2)N(CC(F)F)CC[C@]314`, the Ki in experiment [1] was 18.2 nM; in experiment [6], > 1000 nM; at Mu-type opioid receptor it was > 1000 nM.
Consider `CCCN1CC[C@]23c4c5ccc(O)c4O[C@H]2c2nc4ccccc4cc2C[C@@]3(O)[C@H]1C5`, for which the inhibition constant (Ki) turned out to be 2.77 nM in experiment [1], 313 nM in experiment [6] and 123 nM on Mu-type opioid receptor. This molecule came in with an EC50 in experiment [2] of 5.85 nM. For the same molecule, the Emax in experiment [3] worked out at 62.4%. Also, the figures for the Ratio Ki in the experiment filed under Homo sapiens [4] and in the experiment filed under Homo sapiens [5] were 44.5 and 113, respectively.
On to `Oc1ccc2c3c1O[C@H]1c4[nH]c5ccccc5c4C[C@@]4(O)[C@@H](C2)N(CCF)CC[C@]314`, for which the figures for the inhibition constant (Ki) (in experiment [1]; in experiment [6]; at Mu-type opioid receptor) were 1.94 nM, 397 nM and 675 nM, respectively. The molecule also gave an EC50 in experiment [2] of 220 nM. The Emax in experiment [3] is -38.1%. Besides, the results for the Ratio Ki in the experiment filed under Homo sapiens [4] and in the experiment filed under Homo sapiens [5] were 348 and 204, respectively.
Consider `Oc1ccc2c3c1O[C@H]1c4nc5ccccc5cc4C[C@@]4(O)[C@@H](C2)N(CC2CC2)CC[C@]314`, for which the results for the inhibition constant Ki (in experiment [1]; in experiment [6]; on Mu-type opioid receptor) were 0.407 nM, 11 nM and 20.8 nM, respectively. This molecule also returned an EC50 in experiment [2] of 9.78 nM. Moreover, in experiment [3], the Emax is 32.4%. In addition, the Ratio Ki in the experiment filed under Homo sapiens [4] turned out to be 51.1; in the experiment listed under Homo sapiens [5] it was 27.1.
On to `Oc1ccc2c3c1O[C@H]1c4[nH]c5ccccc5c4C[C@@]4(O)[C@@H](C2)N(CC(F)F)CC[C@]314`, for which the inhibitory constant (Ki) is 15.5 nM in experiment [1], > 1000 nM in experiment [6] and > 1000 nM at Mu-type opioid receptor. Moreover, in experiment [2], the EC50 amounted to 17.2 nM. For the same molecule, the Emax in experiment [3] was -48.6%.

The values above are taken from ChEMBL document CHEMBL3596130 (Bioorg Med Chem Lett, 2015).
